In ChEMBL document CHEMBL5316354, “From Natural Sources to Synthetic Derivatives: The Allyl Motif as a Powerful Tool for Fragment-Based Design in Cancer Treatment” (J Med Chem, 2023):

Assays:
MCF7 [1] = assay: Antitumor activity against human MCF7 cells assessed as cell growth inhibition incubated for 48 hrs; format: functional, cell-based; details: MCF7, 48 h
BGC-823 [2] = assay: Antitumor activity against human BGC-823 cells assessed as cell growth inhibition; format: functional, cell-based
SGC-7901 = assay: Antitumor activity against human SGC-7901 cells assessed as cell growth inhibition; format: functional, cell-based
PC-3 = assay: Antitumor activity against human PC-3 cells assessed as cell growth inhibition; format: functional, cell-based
DU-145 = assay: Antitumor activity against human DU-145 cells assessed as cell growth inhibition; format: functional, cell-based
MCF7 [3] = assay: Antitumor activity against human MCF7 cells assessed as cell growth inhibition; format: functional, cell-based
HeLa = assay: Antitumor activity against human HeLa cells assessed as cell growth inhibition; format: functional, cell-based
SW480 = assay: Antitumor activity against human SW480 cells assessed as inhibition of cell growth incubated for 24 to 48 hrs; format: functional, cell-based
SW-620 = assay: Antitumor activity against human SW620 cells assessed as cell growth inhibition; format: functional, cell-based
NCI-H23 = assay: Antitumor activity against human NCI-H23 cells assessed as cell growth inhibition; format: functional, cell-based
MCF7 [4] = assay: Antitumor activity against human MCF7 expressing HER-2 cells assessed as cell growth inhibition; format: functional, cell-based
MCF7 [5] = assay: Antitumor activity against human MCF7 cells assessed as decrease in cell viability; format: functional, cell-based
BGC-823 [6] = assay: Antitumor activity against human BGC-823 cells xenografted in BALB/c nude mouse assessed as tumor growth inhibition at 40 mg/kg, ip administered for 32 days relative to control; format: functional; details: BGC-823, 768 h, time 32 day
BGC-823 [7] = assay: Antitumor activity against human BGC-823 cells xenografted in BALB/c nude mouse assessed as tumor growth inhibition at 30 mg/kg, ip administered for 32 days relative to control; format: functional; details: BGC-823, 768 h, time 32 day
BGC-823 [8] = assay: Antitumor activity against human BGC-823 cells xenografted in BALB/c nude mouse assessed as tumor growth inhibition at 20 mg/kg, ip administered for 32 days relative to control; format: functional; details: BGC-823, 768 h, time 32 day
Ca9-22 [9] = assay: Antitumor activity against human Ca9-22 cells assessed as cellular proliferation at 30 uM; format: functional
Ca9-22 [10] = assay: Antitumor activity against human Ca9-22 cells assessed as cellular proliferation at 3 uM; format: functional
MG-63 = assay: Antiproliferative activity against human MG-63 cells assessed as growth inhibition by MTT assay; format: functional
MDA-MB-231 [11] = assay: Antitumor activity against human MDA-MB-231 cells assessed as cell viability at 50 uM relative to control; format: functional; details: read-out: Activity
Rattus norvegicus [12] = assay: Immunomodulatory activity in testosterone propionate induced benign prostatic hyperplasia Wistar rat model assessed as reduction in prostate weight at 50 mg/kg, po relative to control; format: functional
Rattus norvegicus [13] = assay: Immunomodulatory activity in testosterone propionate induced benign prostatic hyperplasia Wistar rat model assessed as reduction in serum testosterone level at 50 mg/kg, po relative to control; format: functional
Rattus norvegicus [14] = assay: Immunomodulatory activity in testosterone propionate induced benign prostatic hyperplasia Wistar rat model assessed as reduction in DHT level at 50 mg/kg, po relative to control; format: functional
MDA-MB-231 [15] = assay: Antitumor activity against human MDA-MB-231 cells assessed as cell viability at 0.5 uM relative to control; format: functional; details: read-out: Activity
MCF7 [16] = assay: Antitumor activity against human MCF7 cells assessed as inhibition of cell proliferation in the presence of 1mM of eugenol; format: functional, cell-based
MCF7 [17] = assay: Antitumor activity against human MCF7 cells assessed as inhibition of cell proliferation; format: functional, cell-based
HepG2 [18] = assay: Antitumor activity against human HepG2 cells assessed as reduction in cell growth; format: functional, cell-based
HepG2 [19] = assay: Cytotoxicity against human HepG2 cells; format: functional
SK-BR-3 [20] = assay: Antitumor activity against human SK-BR-3 cells assessed as inhibition of cell proliferation at 40 uM relative to control; format: functional
SK-BR-3 [21] = assay: Antitumor activity against human SK-BR-3 cells assessed as inhibition of cell proliferation at 60 uM relative to control; format: functional
MDA-MB-231 [22] = assay: Antitumor activity against human MDA-MB-231 cells assessed as inhibition of cell proliferation at 60 uM relative to control; format: functional
MDA-MB-231 [23] = assay: Antitumor activity against human MDA-MB-231 cells assessed as inhibition of cell proliferation at 40 uM relative to control; format: functional
Rattus norvegicus [24] = assay: Immunomodulatory activity in testosterone propionate induced benign prostatic hyperplasia Wistar rat model assessed as reduction in prostate weight at 5 mg/kg, po relative to control; format: functional
Rattus norvegicus [25] = assay: Immunomodulatory activity in testosterone propionate induced benign prostatic hyperplasia Wistar rat model assessed as reduction in DHT level at 5 mg/kg, po relative to control; format: functional
Rattus norvegicus [26] = assay: Immunomodulatory activity in testosterone propionate induced benign prostatic hyperplasia Wistar rat model assessed as reduction in serum testosterone level at 5 mg/kg, po relative to control; format: functional
SK-BR-3 [27] = assay: Antitumor activity against human SK-BR-3 cells assessed as cell growth inhibition; format: functional, cell-based
NCI-H226 = assay: Antitumor activity against human NCI-H226 cells assessed as cell growth inhibition; format: functional, cell-based
HL-60 = assay: Antitumor activity against human HL-60 cells assessed as cell growth inhibition; format: functional, cell-based
[28] = Antitumor activity against human OC2 cells assessed as increase in cell proliferation at 10 uM relative to control; format: functional
[29] = Antitumor activity against human Osteosarcoma cells assessed as increase in intracellular calcium concentration; format: functional, cell-based; details: Osteosarcoma cell

## C/C=C/c1ccc(O)c(OC)c1
MCF7 [1]
  IC50: 11.4 µM

## C=CCc1cc(/C=C2\CC/C(=C\c3ccc(O)c(CC=C)c3)C2=O)ccc1O
BGC-823 [2]
  IC50: 7.1 µM
SGC-7901
  IC50: 6.9 µM

## C=CCOc1cccc2c1C(=O)C=C(C)C2=O
PC-3
  IC50: 32.2 µM

## Cn1[se]c2ccccc2c1=O
DU-145
  IC50: 30.2 µM
MCF7 [3]
  IC50: 32.7 µM

## CCCCn1[se]c2ccccc2c1=O
DU-145
  IC50: 28 µM
MCF7 [3]
  IC50: 13.8 µM

## CC(C)CCn1[se]c2ccccc2c1=O
MCF7 [3]
  IC50: 29 µM

## O=c1c2ccccc2[se]n1C1CCCCC1
DU-145
  IC50: 5.7 µM
MCF7 [3]
  IC50: 7.3 µM

## CCC[C@@H](Cc1c[nH]c2ccccc12)NS(=O)(=O)c1c(C(C)C)cc(C(C)C)cc1C(C)C
HeLa
  IC50: 30.8 µM

## C=CCc1cc(/C=C2\CN(Cc3ccccc3)C/C(=C\c3ccc(O)c(CC=C)c3)C2=O)ccc1O
BGC-823 [2]
  IC50: 6.9 µM
SGC-7901
  IC50: 6 µM

## C=CCSC[C@H](NC(=O)C(C)c1ccc2cc(OC)ccc2c1)C(=O)OCC (stereo partly drawn)
SW480
  IC50: 31 µM

## C=CCc1cccc(/C=N/NC(=O)Cn2cnc3ccc([N+](=O)[O-])cc3c2=O)c1O
SW-620
  IC50: 0.07 µM
PC-3
  IC50: 0.07 µM
NCI-H23
  IC50: 0.03 µM

## C=CCNC(=S)NC(=O)c1ccccc1
MCF7 [4]
  IC50: 0.6 µM
MCF7 [3]
  IC50: 1.5 µM

## C=CCSCC(N)C(=O)OOc1ccc(CNC(=O)CCCCCCCC)cc1OC (stereo not drawn)
MCF7 [5]
  IC50: 66 µM

## C=CCSC[C@H](NC(=O)Cc1ccccc1Nc1c(Cl)cccc1Cl)C(=O)OCC
SW480
  IC50: 31 µM

## C=CCSC[C@H](NC(=O)c1ccccc1O)C(=O)OCC
SW480
  IC50: 31 µM

## C=CCSSSCC=C [ALLITRIDIN]
BGC-823 [6]
  inhibition in vivo at 40 mg/kg: 57%
BGC-823 [7]
  inhibition in vivo at 30 mg/kg: 50%
BGC-823 [8]
  inhibition in vivo at 20 mg/kg: 38%

## C/C=C/c1ccc(OC)cc1 [ANETHOLE]
Ca9-22 [9]
  Activity: 5.2%
Ca9-22 [10]
  Activity: 42.7%
MG-63
  GI50: 60.2 µM
MDA-MB-231 [11]
  viability at 50 µM: 60%

## C=CCSCC=C [DIALLYL SULFIDE]
Rattus norvegicus [12]
  inhibition in vivo at 50 mg/kg: 60%
Rattus norvegicus [13]
  inhibition in vivo at 50 mg/kg: 68%
Rattus norvegicus [14]
  inhibition in vivo at 50 mg/kg: 75%

## COc1cccc2c1C(=O)c1c(O)c3c(c(O)c1C2=O)C[C@@](O)(C(=O)CO)C[C@@H]3O[C@H]1C[C@H](N)[C@H](O)[C@H](C)O1 [DOXORUBICIN]
BGC-823 [2]
  IC50: 38.2 µM
SGC-7901
  IC50: 36.9 µM
MDA-MB-231 [15]
  viability at 0.5 µM: 40%
MCF7 [16]
  IC50: 0.088 µM
MCF7 [17]
  IC50: 0.5 µM

## C=C1[C@H](CO)[C@@H](O)C[C@@H]1n1cnc2c(=O)[nH]c(N)nc21 [ENTECAVIR ANHYDROUS]
HepG2 [18]
  EC50: 0.00375 µM
HepG2 [19]
  CC50: 30 µM

## C=CCc1ccc(O)c(OC)c1 [EUGENOL]
SK-BR-3 [20]
  inhibition at 40 µM: > 90%
SK-BR-3 [21]
  inhibition at 60 µM: > 90%
MDA-MB-231 [22]
  inhibition at 60 µM: > 90%
MDA-MB-231 [23]
  inhibition at 40 µM: > 90%
MCF7 [1]
  IC50: > 1500 µM

## CC(C)(C)NC(=O)[C@H]1CC[C@H]2[C@@H]3CC[C@H]4NC(=O)C=C[C@]4(C)[C@H]3CC[C@]12C [FINASTERIDE]
Rattus norvegicus [24]
  inhibition in vivo at 5 mg/kg: 53%
Rattus norvegicus [25]
  inhibition in vivo at 5 mg/kg: 52%
Rattus norvegicus [26]
  inhibition in vivo at 5 mg/kg: 55%

## COC1=C2C[C@@H](C)C[C@H](OC)[C@H](O)[C@@H](C)/C=C(\C)[C@H](OC(N)=O)[C@@H](OC)/C=C\C=C(/C)C(=O)NC(=CC1=O)C2=O [GELDANAMYCIN]
SK-BR-3 [27]
  IC50: 0.004 µM
MCF7 [3]
  IC50: 0.011 µM

## CCCCCCCCC(=O)NCc1ccc(O)c(OC)c1 [NONIVAMIDE]
MCF7 [5]
  IC50: 2240 µM

## C=CCc1cccc(/C=N/NC(=O)CN2CCN(Cc3ccccc3)CC2)c1O [PAC-1]
NCI-H226
  IC50: 0.35 µM
HL-60
  IC50: 0.92 µM
MCF7 [3]
  IC50: > 75 µM

## C=CCc1ccc2c(c1)OCO2 [SAFROLE]
[28]
  Activity: 50%
[29]
  EC50: 450 µM

## C=CCNC1=C2C[C@@H](C)C[C@H](OC)[C@H](O)[C@@H](C)/C=C(\C)[C@H](OC(N)=O)[C@@H](OC)/C=C\C=C(/C)C(=O)NC(=CC1=O)C2=O [TANESPIMYCIN]
SK-BR-3 [27]
  IC50: 0.004 µM
MCF7 [3]
  IC50: 0.005 µM
